Consider 22 molecules from patent US7932262B2 (Novartis AG, priority 2006, dated 2011).

Read-outs that look alike come from different tables or passages of the source.

One test concerns PC-3 cells. Briefly: Cell Proliferation Assay (Cell Titer Glo), PC-3 cell line. The test is classed as cell-based. The conditions noted are these: read-out: CPEC50 PC3. The method in brief: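 Cell Titer Glo luminescence, read after fresh medium replaced the dosing medium, gave viability of PC-3 cells plated at 1000 cells/well. Compounds, 1:3 serially diluted in DMSO at 500× and then in medium, were added after 3-5 h adhesion and incubated 3 days at 37° C.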
In general terms: In ATP-based viability assays light output follows the ATP content of the culture.

The target of a further test is T1, PDK1 kinase (Homo sapiens, UniProt O15530).
T1 sequence (O15530 1-556): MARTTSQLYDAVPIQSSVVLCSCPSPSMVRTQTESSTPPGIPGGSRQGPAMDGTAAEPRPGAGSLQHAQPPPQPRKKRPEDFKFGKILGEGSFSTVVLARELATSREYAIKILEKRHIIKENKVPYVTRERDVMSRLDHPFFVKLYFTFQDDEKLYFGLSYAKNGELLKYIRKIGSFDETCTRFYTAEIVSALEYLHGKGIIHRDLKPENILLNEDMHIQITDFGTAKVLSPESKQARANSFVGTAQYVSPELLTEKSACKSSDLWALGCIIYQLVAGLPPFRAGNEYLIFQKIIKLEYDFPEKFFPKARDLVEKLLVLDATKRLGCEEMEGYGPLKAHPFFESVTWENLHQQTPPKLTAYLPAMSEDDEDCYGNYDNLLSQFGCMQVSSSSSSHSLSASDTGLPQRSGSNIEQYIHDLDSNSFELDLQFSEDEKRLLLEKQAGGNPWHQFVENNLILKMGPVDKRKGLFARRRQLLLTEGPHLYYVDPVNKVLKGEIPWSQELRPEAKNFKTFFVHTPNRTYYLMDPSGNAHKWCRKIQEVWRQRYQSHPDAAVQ
In words: PDK1 Kinase Alpha Screen Assay. The class given is biochemical. The method, boiled down:
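PDK1, 10 uM ATP, 50 nM biotin-PDK1-4 peptide; 50 mM Tris pH 7.5, 10 mM MgCl2, 0.1% BSA, 0.01% Tween-20, 2 mM DTT, 2.5% DMSO; 3-18 h. EDTA stop; AlphaScreen, phospho-Ser/Thr antibody, overnight RT.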

Consider `Clc1ccc(Nc2ncc3cccc(-c4ccc(NCCN5CCCC5)nc4)c3n2)cc1` [Compound 995, N-(4-chorophenyl)-8-(6-(2-(pyrrolidin-1-yl)ethylamino)pyridin-3-yl)quinazolin-2-amine], for which the EC50 with PC-3 cells (PC3 cells) is < 5 µM. The IC50 on PDK1 kinase (read-out: PDK1 IC50) is < 5 µM.
As for `c1cc(-c2ccc(NCCN3CCCC3)nc2)c2nc(Nc3ccc(N4CCOCC4)cc3)ncc2c1` [Compound 996, N-(4-morpholinophenyl)-8-(6-(2-(pyrrolidin-1-yl)ethylamino)pyridin-3-yl)quinazolin-2-amine], the EC50 in the test with PC-3 cells (Homo sapiens, PC-3, PC3 cells) was < 5 µM. Besides, the IC50 at PDK1 kinase (read-out: PDK1 IC50) is < 5 µM.
Turning to `CNS(=O)(=O)Cc1ccc(Nc2ncc3cccc(-c4ccc(NCCN5CCCC5)nc4)c3n2)cc1` [Compound 998, N-methyl-1-(4-(8-(6-(2-(pyrrolidin-1-yl)ethylamino)pyridin-3-yl)quinazolin-2-ylamino)phenyl)methanesulfonamide], the EC50 with PC-3 cells (Homo sapiens, PC-3, PC3 cells) is < 5 µM. For the same molecule, at PDK1 kinase (read-out: PDK1 IC50), the IC50 was < 5 µM.
With `CN1CCN(c2ccc(-c3cccc4cnc(Nc5ccc(F)cc5)nc34)cn2)CC1` [Compound 999, N-(4-fluorophenyl)-8-(6-(4-methylpiperazin-1-yl)pyridin-3-yl)quinazolin-2-amine], the EC50 in the test on PC-3 cells (Homo sapiens, PC-3, PC3 cells) was < 5 µM. In addition, at PDK1 kinase (read-out: PDK1 IC50), the IC50 was < 5 µM.
As to `O=c1[nH]c2ccc(Nc3ncc4cccc(-c5ccc(NCCN6CCCC6)nc5)c4n3)cc2[nH]1` [Compound 1000, 5-(8-(6-(2-(pyrrolidin-1-yl)ethylamino)pyridin-3-yl)quinazolin-2-ylamino)-1H-benzo[d]imidazol-2(3H)-one], the EC50 with PC-3 cells (Homo sapiens, PC-3, PC3 cells) is < 5 µM. Further, the IC50 at PDK1 kinase (read-out: PDK1 IC50) is < 5 µM.
For `Cc1ccc(Nc2ncc3cccc(-c4ccc(NCCN5CCCC5)nc4)c3n2)cc1NS(C)(=O)=O` [Compound 1001, N-(2-methyl-5-(8-(6-(2-(pyrrolidin-1-yl)ethylamino)pyridin-3-yl)quinazolin-2-ylamino)phenyl)methanesulfonamide], in the test with PC-3 cells (Homo sapiens, PC-3, PC3 cells), the EC50 is < 5 µM. The IC50 at PDK1 kinase (read-out: PDK1 IC50) is < 5 µM.
As to `CC(C)NS(=O)(=O)c1ccc(Nc2ncc3cccc(-c4ccc(NCCN5CCCC5)nc4)c3n2)cc1` [Compound 1016, N-isopropyl-4-(8-(6-(2-(pyrrolidin-1-yl)ethylamino)pyridin-3-yl)quinazolin-2-ylamino)benzenesulfonamide], in the test on PC-3 cells (Homo sapiens, PC-3, PC3 cells), the EC50 is < 5 µM. Besides, the IC50 on PDK1 kinase (read-out: PDK1 IC50) was < 5 µM.
`Fc1ccc(Nc2ncc3cccc(-c4ccc(NCCN5CCCC5)nc4)c3n2)c(F)c1` [Compound 1017, N-(2,4-difluorophenyl)-8-(6-(2-(pyrrolidin-1-yl)ethylamino)pyridin-3-yl)quinazolin-2-amine]: in the test with PC-3 cells (Homo sapiens, PC-3, PC3 cells), the EC50 is < 5 µM. Moreover, the IC50 on PDK1 kinase (read-out: PDK1 IC50) is < 5 µM.
`Fc1ccc(Nc2ncc3cccc(-c4ccc(NCCN5CCCC5)nc4)c3n2)cc1F` [Compound 1018, N-(3,4-difluorophenyl)-8-(6-(2-(pyrrolidin-1-yl)ethylamino)pyridin-3-yl)quinazolin-2-amine]: the EC50 in the test on PC-3 cells (Homo sapiens, PC-3, PC3 cells) is < 5 µM. The IC50 on PDK1 kinase (read-out: PDK1 IC50) was < 5 µM.
On to `OCCc1ccc(Nc2ncc3cccc(-c4ccc(NCCN5CCCC5)nc4)c3n2)cc1` [Compound 1019, 2-(4-(8-(6-(2-(pyrrolidin-1-yl)elhylamino)pyridin-3-yl)quinazolin-2-ylamino)phenyl)ethanol], for which the EC50 in the test with PC-3 cells (Homo sapiens, PC-3, PC3 cells) is < 5 µM. The IC50 on PDK1 kinase (read-out: PDK1 IC50) was < 5 µM.
Consider `Fc1cccc(Nc2ncc3cccc(-c4ccc(NCCN5CCCC5)nc4)c3n2)c1` [Compound 1020, N-(3-fluorophenyl)-8-(6-(2-(pyrrolidin-1-yl)ethylamino)pyridin-3-yl)quinazolin-2-amine], for which the EC50 in the test with PC-3 cells (Homo sapiens, PC-3, PC3 cells) was < 5 µM. Besides, on PDK1 kinase (read-out: PDK1 IC50), the IC50 was < 5 µM.
For the molecule `Cn1cnnc1-c1cccc(Nc2ncc3cccc(-c4ccc(NCCN5CCCC5)nc4)c3n2)c1` [Compound 1021, N-(3-(4-methyl-4H-1,2,4-triazol-3-yl)phenyl)-8-(6-(2-(pyrrolidin-1-yl)ethylamino)pyridin-3-yl)quinazolin-2-amine], in the test with PC-3 cells (Homo sapiens, PC-3, PC3 cells), the EC50 was < 5 µM. Further, the IC50 on PDK1 kinase (read-out: PDK1 IC50) is < 5 µM.
`c1cc(Nc2ncc3cccc(-c4ccc(NCCN5CCCC5)nc4)c3n2)cc(N2CCOCC2)c1` [Compound 1022, N-(3-morpholinophenyl)-8-(6-(2-(pyrrolidin-1-yl)ethylamino)pyridin-3-yl)quinazolin-2-amine]: in the test with PC-3 cells (Homo sapiens, PC-3, PC3 cells), the EC50 was < 5 µM. Also, the IC50 at PDK1 kinase (read-out: PDK1 IC50) was < 5 µM.
With `FC(F)(F)c1cccc(Nc2ncc3cccc(-c4ccc(NCCN5CCCC5)nc4)c3n2)c1` [Compound 1023, 8-(6-(2-(pyrrolidin-1-yl)ethylamino)pyridin-3-yl)-N-(3-(trifluoromethyl)phenyl)quinazolin-2-amine], the EC50 with PC-3 cells (Homo sapiens, PC-3, PC3 cells) is < 5 µM. The IC50 on PDK1 kinase (read-out: PDK1 IC50) was < 5 µM.
As for `CC(=O)Nc1ccc(Nc2ncc3cccc(-c4ccc(NCCN5CCCC5)nc4)c3n2)cc1Cl` [Compound 1024, N-(2-chloro-4-(8-(6-(2-(pyrrolidin-1-yl)ethylamino)pyridin-3-yl)quinazolin-2-ylamino)phenyl)acetamide], the EC50 in the test with PC-3 cells (Homo sapiens, PC-3, PC3 cells) is < 5 µM. In addition, the IC50 at PDK1 kinase (read-out: PDK1 IC50) is < 5 µM.
For the molecule `CC(C)Cn1cc(-c2ccc3cnc(Nc4ccc(N5CCN(C)CC5)cc4)nc3c2)cn1` [Compound 1025, 7-(1-isobutyl-1H-pyrazol-4-yl)-N-(4-(4-methylpiperazin-1-yl)phenyl)quinazolin-2-amine], in the test with PC-3 cells (Homo sapiens, PC-3, PC3 cells), the EC50 was < 5 µM. Also, on PDK1 kinase (read-out: PDK1 IC50), the IC50 was < 5 µM.
For the molecule `Cc1ccc(Nc2ncc3ccc(O)c(C4CCN(C(C)C)CC4)c3n2)cc1NS(C)(=O)=O` [Compound 1026, N-(5-(7-hydroxy-8-(1-isopropylpiperidin-4-yl)quinazolin-2-ylamino)-2-methylphenyl)methanesulfonamide], the EC50 in the test on PC-3 cells (Homo sapiens, PC-3, PC3 cells) was < 5 µM. Further, on PDK1 kinase (read-out: PDK1 IC50), the IC50 is < 5 µM.
In the case of `CC(=O)Nc1ccc(Nc2ncc3cccc(-c4ccc(NCCN5CCCC5)nc4)c3n2)cc1C` [Compound 1027, N-(2-methyl-4-(8-(6-(2-(pyrrolidin-1-yl)ethylamino)pyridin-3-yl)quinazolin-2-ylamino)phenyl)acetamide], the EC50 with PC-3 cells (Homo sapiens, PC-3, PC3 cells) was < 5 µM. Further, on PDK1 kinase (read-out: PDK1 IC50), the IC50 was < 5 µM.
For `CS(=O)(=O)c1ccc(Nc2ncc3cccc(-c4ccc(NCCN5CCCC5)nc4)c3n2)cc1` [Compound 1028, N-(4-(methylsulfonyl)phenyl)-8-(6-(2-(pyrrolidin-1-yl)ethylamino)pyridin-3-yl)quinazolin-2-amine], the EC50 with PC-3 cells (Homo sapiens, PC-3, PC3 cells) was 5 to 10 µM. In addition, the IC50 at PDK1 kinase (read-out: PDK1 IC50) was < 5 µM.
Take `CN1CCN(c2ccc(-c3cccc4cnc(Nc5ccc(S(=O)(=O)N6CCOCC6)cc5)nc34)cn2)CC1` [Compound 1029, 8-(6-(4-methylpiperazin-1-yl)pyridin-3-yl)-N-(4-(morpholinosulfonyl)phenyl)quinazolin-2-amine]: in the test on PC-3 cells (Homo sapiens, PC-3, PC3 cells), the EC50 was < 5 µM. In addition, the IC50 at PDK1 kinase (read-out: PDK1 IC50) was < 5 µM.
On to `Cc1cc(Nc2ncc3ccc(O)c(C4CCN(C(C)C)CC4)c3n2)ccc1F` [Compound 1030, 2-(4-fluoro-3-methylphenylamino)-8-(1-isopropylpipenidin-4-yl)quinazolin-7-ol], for which the EC50 with PC-3 cells (Homo sapiens, PC-3, PC3 cells) is 5 to 10 µM. The IC50 on PDK1 kinase (read-out: PDK1 IC50) is < 5 µM.
With `C#Cc1cc(OC2CCCNCC2)c2nc(Nc3ccc(N4CCOCC4)cc3)ncc2c1` (centres unmarked) [Compound 1031, 8-(azepan-4-yloxy)-6-ethynyl-N-(4-morpholinophenyl)quinazolin-2-amine], the EC50 in the test with PC-3 cells (Homo sapiens, PC-3, PC3 cells) was < 5 µM. Further, on PDK1 kinase (head of the second part of Table 4: BV11261, read-out: PDK1 BV11261), the IC50 is < 5 µM.
